Target: T1, AGAP002992-PA (Anopheles gambiae, UniProt Q5TU56)
T1 sequence (Q5TU56 whole entry): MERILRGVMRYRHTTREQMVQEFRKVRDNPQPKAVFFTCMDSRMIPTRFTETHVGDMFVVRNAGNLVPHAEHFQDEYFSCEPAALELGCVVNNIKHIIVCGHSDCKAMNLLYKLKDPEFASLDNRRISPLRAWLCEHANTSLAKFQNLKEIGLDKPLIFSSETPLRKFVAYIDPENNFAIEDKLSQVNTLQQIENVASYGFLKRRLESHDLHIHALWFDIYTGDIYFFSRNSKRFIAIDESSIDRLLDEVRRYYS
Description: Inhibition of Anopheles gambiae carbonic anhydrase pre-incubated for 15 mins by stopped-flow CO2 hydration assay

## NS(=O)(=O)c1nnc(NS(=O)(=O)c2ccccc2)s1 [BENZOLAMIDE]
  Ki: 9.8 nM

## Nc1ccc(S(=O)(=O)NCCc2ccc(S(N)(=O)=O)cc2)cc1
  Ki: 47 nM

## CC1(C)O[C@@H]2[C@@H](CO[C@@]3(COS(N)(=O)=O)OC(C)(C)O[C@@H]23)O1 [TOPIRAMATE]
  Ki: > 100000 nM

## NS(=O)(=O)c1ccc(O)cc1
  Ki: > 100000 nM

## Nc1nccc(Nc2ccc(S(N)(=O)=O)cc2)n1
  Ki: 10600 nM

## NCCc1ccc(S(N)(=O)=O)cc1
  Ki: 835 nM

## NCc1ccc(S(N)(=O)=O)cc1 [MAFENIDE]
  Ki: 13600 nM

## Cc1ccc(-c2cc(C(F)(F)F)nn2-c2ccc(S(N)(=O)=O)cc2)cc1 [CELECOXIB]
  Ki: 173 nM

## Nc1ccc(S(N)(=O)=O)cc1F
  Ki: 902 nM

## NS(=O)(=O)c1ccc(CCNS(=O)(=O)c2ccc([N+](=O)[O-])cc2CO)cc1
  Ki: 6.1 nM

## Nc1ccc(S(N)(=O)=O)cc1Br
  Ki: 855 nM

## NS(=O)(=O)c1ccc(S(=O)(=O)Nc2cccc3c(Cl)c[nH]c23)cc1
  Ki: 226 nM

## Nc1cc(C(F)(F)F)c(S(N)(=O)=O)cc1S(N)(=O)=O [2,4-DISULFAMYLTRIFLUOROMETHYLANILINE]
  Ki: 4360 nM

## Nc1ccc(S(=O)(=O)NCc2ccc(S(N)(=O)=O)cc2)cc1
  Ki: 81.9 nM

## NS(=O)(=O)c1ccc(CO)cc1
  Ki: > 100000 nM

## CCN[C@H]1CN(CCCOC)S(=O)(=O)c2sc(S(N)(=O)=O)cc21 [BRINZOLAMIDE]
  Ki: 31.4 nM

## NS(=O)(=O)c1ccc(CCO)cc1
  Ki: > 100000 nM

## Nc1ccc(S(=O)(=O)Nc2nnc(S(N)(=O)=O)s2)cc1
  Ki: 6.8 nM

## Cc1ccc(S(N)(=O)=O)cc1 [P-TOLUENESULFONAMIDE]
  Ki: 12400 nM

## Nc1cc(Cl)c(S(N)(=O)=O)cc1S(N)(=O)=O
  Ki: 756 nM

## O=C1NS(=O)(=O)c2ccccc21 [SACCHARIN]
  Ki: 95.3 nM

## Nc1ccc(S(N)(=O)=O)cc1 [SULFANILAMIDE]
  Ki: 862 nM

## Nc1nnc(S(N)(=O)=O)s1
  Ki: 737 nM

## NS(=O)(=O)c1cccc(S(N)(=O)=O)c1
  Ki: 843 nM

## Nc1ccc(S(N)(=O)=O)cc1Cl
  Ki: 12400 nM

## Nc1cccc(S(N)(=O)=O)c1
  Ki: 887 nM

## CCOc1ccc2nc(S(N)(=O)=O)sc2c1 [ETHOXZOLAMIDE]
  Ki: 185 nM

## NS(=O)(=O)c1cc(Cl)cc(Cl)c1O
  Ki: 6480 nM

## Cn1nc(S(N)(=O)=O)sc1=N
  Ki: 1680 nM

## Nc1ccc(S(=O)(=O)Nc2ccc(S(N)(=O)=O)cc2)cc1
  Ki: 83.4 nM
